{
  "source": "patent US10131648B2",
  "about": "“Substituted benzothiophenyl derivatives as GPR40 agonists for the treatment of type II diabetes” (Janssen Pharmaceutica NV, priority 2014, dated 2018)",
  "note": "pEC50: −log10 of the molar value.",
  "data": [
    {"molecular_target": "human GPR40 (Homo sapiens (Human), UniProt O14842)", "sequence (O14842 whole entry)": "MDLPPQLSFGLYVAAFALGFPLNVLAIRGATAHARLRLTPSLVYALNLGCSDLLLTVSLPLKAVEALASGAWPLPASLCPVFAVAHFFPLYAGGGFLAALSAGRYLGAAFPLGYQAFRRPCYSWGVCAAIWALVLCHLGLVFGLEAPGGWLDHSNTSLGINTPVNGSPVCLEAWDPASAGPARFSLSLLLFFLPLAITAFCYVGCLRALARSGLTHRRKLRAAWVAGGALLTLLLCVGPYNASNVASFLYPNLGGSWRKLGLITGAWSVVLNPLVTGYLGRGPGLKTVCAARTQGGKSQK", "assay": "GPR40 Calcium Flux Assay", "format": "cell-based", "settings": "transfected HEK293 cells stably expressing human GPR40; Ca2+ mobilization; mean data; read-out: hGPR40 Ca^2+ Assay EC50", "procedure": "Compounds were tested in a calcium flux assay using transfected HEK293 cells stably expressing either human GPR40 or rat GPR40. Human GPR40 expressing cells were cultured in DMEM-High Glucose media supplemented with 10% fetal bovine serum, 1×L-Glutamine, 1×Penicillin/Streptomycin and 500 μg/mL G418. Rat GPR40 expressing cells were cultured in DMEM-High Glucose media supplemented with 10% fetal bovine serum and 1 μg/mL puromycin. Cells were plated into poly-D-lysine coated 384-well plates and cultured overnight in a 37° C. humidified tissue culture incubator under 5% CO2/[…] atmosphere. On the day of the experiment, the culture media was replaced with assay buffer (HBSS, 20 mM HEPES, 0.1% BSA) and the cells incubated at 37° C. for 1 h. Calcium-sensitive fluorescent dye (Fluo 8 No-Wash Calcium Dye, ABD Bioquest) was then added and the cells incubated for another 30 min at 37° C. followed by 15 min at room temperature while protected from the light. The cell plate and a plate of diluted compounds of Formula (I) were loaded into a fluorescent plate reader that added compounds onto the cells while measuring the fluorescence intensity of each well. The plate reader recorded fluorescence intensity at 1 second intervals for 8 min and provided the data for analysis in an Excel format. EC50 values were calculated using Prism (GraphPad) software.", "values": [
      {"smiles": "Cc1ccccc1-c1csc2ccc(COc3ccc(CCC(=O)O)cc3)cc12", "note": "[Cpd 1, 3-[4-[[3-(2-Methylphenyl)benzo[b]thiophen-5-yl]methoxy]phenyl]propanoic acid]", "pEC50": 8.15},
      {"smiles": "CC#C[C@@H](CC(=O)O)c1ccc(OCc2ccc3scc(-c4ccc(OCC5(O)CCS(=O)(=O)CC5)cc4C)c3c2)cc1", "note": "[Cpd 3, (3S)-3-[4-[[3-[4-[(4-Hydroxy-1,1-dioxo-thian-4-yl)methoxy]-2-methyl-phenyl]benzo[b]thiophen-5-yl]methoxy]phenyl]hex-4-ynoic acid]", "pEC50": 8.30},
      {"smiles": "CC#C[C@@H](CC(=O)O)c1ccc(OCc2ccc3scc(-c4ccc(OCCCS(C)(=O)=O)cc4C)c3c2)cc1", "note": "[Cpd 4, (3S)-3-[4-[[3-[2-Methyl-4-(3-methylsulfonylpropoxy)phenyl]benzo[b]thiophen-5-yl]methoxy]phenyl]hex-4-ynoic acid]", "pEC50": 8.52},
      {"smiles": "CC#C[C@@H](CC(=O)O)c1ccc(OCc2ccc3scc(-c4ccc(C(=O)N5CCS(=O)(=O)CC5)cc4C)c3c2)cc1", "note": "[Cpd 5, (3S)-3-[4-[[3-[4-(1,1-Dioxo-1,4-thiazinane-4-carbonyl)-2-methyl-phenyl]benzo[b]thiophen-5-yl]methoxy]phenyl]hex-4-ynoic acid]", "pEC50": 7.64},
      {"smiles": "CC#C[C@@H](CC(=O)O)c1ccc(OCc2ccc3scc(-c4ccc(C5=CCS(=O)(=O)CC5)cc4C)c3c2)cc1", "note": "[Cpd 6, (3S)-3-[4-[[3-[4-(1,1-Dioxo-3,6-dihydro-2H-thiopyran-4-yl)-2-methyl-phenyl]benzo[b]thiophen-5-yl]methoxy]phenyl]hex-4-ynoic acid]", "pEC50": 7.82},
      {"smiles": "CC#C[C@@H](CC(=O)O)c1ccc(OCc2ccc3scc(-c4ccc(O)cc4C)c3c2)cc1", "note": "[Cpd 7, (3S)-3-[4-[[3-(4-Hydroxy-2-methyl-phenyl)benzo[b]thiophen-5-yl]methoxy]phenyl]hex-4-ynoic acid]", "pEC50": 8.15},
      {"smiles": "CC#C[C@@H](CC(=O)O)c1ccc(OCc2ccc3scc(-c4ccc(C5CCS(=O)(=O)CC5)cc4C)c3c2)cc1", "note": "[Cpd 8, (3S)-3-[4-[[3-[4-(1,1-Dioxothian-4-yl)-2-methyl-phenyl]benzo[b]thiophen-5-yl]methoxy]phenyl]hex-4-ynoic acid]", "pEC50": 7.70},
      {"smiles": "CC#C[C@@H](CC(=O)O)c1ccc(OCc2ccc3sc(C)c(-c4ccc(OC5CCS(=O)(=O)CC5)cc4C)c3c2)cc1", "note": "[Cpd 9, (3S)-3-[4-[[3-[4-(1,1-Dioxothian-4-yl)oxy-2-methyl-phenyl]-2-methyl-benzo[b]thiophen-5-yl]methoxy]phenyl]hex-4-ynoic acid]", "pEC50": 7.77},
      {"smiles": "CC#C[C@@H](CC(=O)O)c1ccc(OCc2ccc3scc(-c4c(C)cccc4C)c3c2)cc1", "note": "[Cpd 10, (3S)-3-[4-[[3-(2,6-Dimethylphenyl)benzo[b]thiophen-5-yl]methoxy]phenyl]hex-4-ynoic acid]", "pEC50": 7.39},
      {"smiles": "CC#C[C@@H](CC(=O)O)c1ccc(OCc2ccc3scc(-c4ccc(OCCC5(O)CC5)cc4C)c3c2)cc1", "note": "[Cpd 11, (3S)-3-(4-((3-(4-(2-(1-Hydroxycyclopropyl)ethoxy)-2-methylphenyl)benzo[b]thiophen-5-yl)methoxy)phenyl)hex-4-ynoic acid]", "pEC50": 7.80},
      {"smiles": "CC#C[C@@H](CC(=O)O)c1ccc(OCc2ccc3scc(-c4ccc(OCCC(C)(C)O)cc4C)c3c2)cc1", "note": "[Cpd 12, (3S)-3-(4-((3-(4-(3-Hydroxy-3-methylbutoxy)-2-methylphenyl)benzo[b]thiophen-5-yl)methoxy)phenyl)hex-4-ynoic acid]", "pEC50": 8.05},
      {"smiles": "CC#C[C@@H](CC(=O)O)c1ccc(OCc2ccc3scc(-c4ccc(OCC(O)CO)cc4C)c3c2)cc1", "note": "(stereo partly drawn) [Cpd 13, (3S)-3-(4-((3-(4-(2,3-Dihydroxypropoxy)-2-methylphenyl)benzo[b]thiophen-5-yl)methoxy)phenyl)hex-4-ynoic acid]", "pEC50": 8.15},
      {"smiles": "CC#C[C@@H](CC(=O)O)c1ccc(OCc2ccc3scc(-c4ccc(OCC5(C)COC5)cc4C)c3c2)cc1", "note": "[Cpd 14, (3S)-3-(4-((3-(2-Methyl-4-((3-methyloxetan-3-yl)methoxy)phenyl)benzo[b]thiophen-5-yl)methoxy)phenyl)hex-4-ynoic acid]", "pEC50": 8.05},
      {"smiles": "CC#C[C@@H](CC(=O)O)c1ccc(OCc2ccc3scc(-c4ccc(OC5CCOCC5)cc4C)c3c2)cc1", "note": "[Cpd 15, (3S)-3-(4-((3-(2-Methyl-4-((tetrahydro-2H-pyran-4-yl)oxy)phenyl)benzo[b]thiophen-5-yl)methoxy)phenyl)hex-4-ynoic acid]", "pEC50": 8.70},
      {"smiles": "CC#C[C@@H](CC(=O)O)c1ccc(OCc2ccc3scc(-c4ccc(OCC5CCS(=O)(=O)CC5)cc4C)c3c2)cc1", "note": "[Cpd 17, (3S)-3-(4-((3-(4-((1,1-Dioxidotetrahydro-2H-thiopyran-4-yl)methoxy)-2-methylphenyl)benzo[b]thiophen-5-yl)methoxy)phenyl)hex-4-ynoic acid]", "pEC50": 8.22},
      {"smiles": "CC#C[C@@H](CC(=O)O)c1ccc(OCc2ccc3scc(-c4ccc(OCC5(C)CS(=O)(=O)C5)cc4C)c3c2)cc1", "note": "[Cpd 18, (3S)-3-(4-((3-(2-Methyl-4-((3-methyl-1,1-dioxidothietan-3-yl)methoxy)phenyl)benzo[b]thiophen-5-yl)methoxy)phenyl)hex-4-ynoic acid]", "pEC50": 7.96},
      {"smiles": "CC#C[C@@H](CC(=O)O)c1ccc(OCc2ccc3scc(-c4ccccc4Cl)c3c2)cc1", "note": "[Cpd 19, (3S)-3-(4-((3-(2-Chlorophenyl)benzo[b]thiophen-5-yl)methoxy)phenyl)hex-4-ynoic acid]", "pEC50": 8.10},
      {"smiles": "CC#C[C@@H](CC(=O)O)c1ccc(OCc2ccc3scc(-c4ccccc4Br)c3c2)cc1", "note": "[Cpd 20, (3S)-3-(4-((3-(2-Bromophenyl)benzo[b]thiophen-5-yl)methoxy)phenyl)hex-4-ynoic acid]", "pEC50": 8.30},
      {"smiles": "CC#C[C@@H](CC(=O)O)c1ccc(OCc2ccc3scc(-c4ccccc4C(F)(F)F)c3c2)cc1", "note": "[Cpd 21, (3S)-3-(4-((3-(2-(Trifluoromethyl)phenyl)benzo[b]thiophen-5-yl)methoxy)phenyl)hex-4-ynoic acid]", "pEC50": 8.10},
      {"smiles": "CC#C[C@@H](CC(=O)O)c1ccc(OCc2ccc3scc(-c4cccnc4C)c3c2)cc1", "note": "[Cpd 22, (3S)-3-(4-((3-(2-Methylpyridin-3-yl)benzo[b]thiophen-5-yl)methoxy)phenyl)hex-4-ynoic acid]", "pEC50": 8.10},
      {"smiles": "CC#C[C@@H](CC(=O)O)c1ccc(COc2ccc3scc(-c4ccccc4C)c3c2)cc1", "note": "[Cpd 23, (3S)-3-(4-(((3-(2-Methylphenyl)benzo[b]thiophen-5-yl)oxy)methyl)phenyl)hex-4-ynoic acid]", "pEC50": 8.00},
      {"smiles": "CC#C[C@@H](CC(=O)O)c1ccc(COc2ccc3scc(-c4ccc(OCCCS(C)(=O)=O)cc4C)c3c2)cc1", "note": "[Cpd 24, (3S)-3-(4-(((3-(2-Methyl-4-(3-(methylsulfonyl)propoxy)phenyl)benzo[b]thiophen-5-yl)oxy)methyl)phenyl)hex-4-ynoic acid]", "pEC50": 8.05},
      {"smiles": "CC#C[C@@H](CC(=O)O)c1ccc(COc2ccc3scc(-c4ccc(C5=CCS(=O)(=O)CC5)cc4C)c3c2)cc1", "note": "[Cpd 25, (3S)-3-(4-(((3-(4-(1,1-Dioxido-3,6-dihydro-2H-thiopyran-4-yl)-2-methylphenyl)benzo[b]thiophen-5-yl)oxy)methyl)phenyl)hex-4-ynoic acid]", "pEC50": 7.62},
      {"smiles": "CC#C[C@@H](CC(=O)O)c1ccc(COc2ccc3scc(-c4ccc(C5CCS(=O)(=O)CC5)cc4C)c3c2)cc1", "note": "[Cpd 26, (3S)-3-(4-(((3-(4-(1,1-Dioxidotetrahydro-2H-thiopyran-4-yl)-2-methylphenyl)benzo[b]thiophen-5-yl)oxy)methyl)phenyl)hex-4-ynoic acid]", "pEC50": 7.74},
      {"smiles": "CC#C[C@@H](CC(=O)O)c1ccc(COc2ccc3scc(-c4c(C)cccc4C)c3c2)cc1", "note": "[Cpd 27, (3S)-3-(4-(((3-(2,6-Dimethylphenyl)benzo[b]thiophen-5-yl)oxy)methyl)phenyl)hex-4-ynoic acid]", "pEC50": 7.70},
      {"smiles": "Cc1cc(C2=CCS(=O)(=O)CC2)ccc1-c1csc2ccc(COc3ccc(C4(CC(=O)O)CC(=O)C4)cc3)cc12", "note": "[Cpd 28, 2-(1-(4-((3-(4-(1,1-Dioxido-3,6-dihydro-2H-thiopyran-4-yl)-2-methylphenyl)benzo[b]thiophen-5-yl)methoxy)phenyl)-3-oxocyclobutyl)acetic acid]", "pEC50": 7.92},
      {"smiles": "Cc1cc(C2CCS(=O)(=O)CC2)ccc1-c1csc2ccc(COc3ccc(C4(CC(=O)O)CC(=O)C4)cc3)cc12", "note": "[Cpd 29, 2-(1-(4-((3-(4-(1,1-Dioxidotetrahydro-2H-thiopyran-4-yl)-2-methylphenyl)benzo[b]thiophen-5-yl)methoxy)phenyl)-3-oxocyclobutyl)acetic acid]", "pEC50": 7.47},
      {"smiles": "Cc1ccccc1-c1csc2ccc(COc3ccc(C4(CC(=O)O)CC(=O)C4)cc3)cc12", "note": "[Cpd 30, 2-(3-Oxo-1-(4-((3-(2-methylphenyl)benzo[b]thiophen-5-yl)methoxy)phenyl)cyclobutyl)acetic acid]", "pEC50": 8.22},
      {"smiles": "Cc1ccccc1-c1csc2ccc(COc3ccc([C@]4(CC(=O)O)C[C@@H](O)C4)cc3)cc12", "note": "[Cpd 31]", "pEC50": 7.32},
      {"smiles": "CCOCCOc1ccc(-c2csc3ccc(COc4ccc(C5(CC(=O)O)CC(=O)C5)cc4)cc23)c(C)c1", "note": "[Cpd 32, 2-(1-(4-((3-(4-(2-Ethoxyethoxy)-2-methylphenyl)benzo[b]thiophen-5-yl)methoxy)phenyl)-3-oxocyclobutyl)acetic acid]", "pEC50": 7.44}
    ]}
  ]
}
